Laboratory results taken from the NIST ThermoML archive (doi:10.1016/j.fluid.2011.01.027).

CCCCCCn1cc[n+](C)c1.O=S(=O)([O-])C(F)(F)F [1-hexyl-3-methylimidazolium trifluoromethanesulfonate]
surface tension liquid-gas [mN/m]
Conditions | Wilhelmy plate method | de Nouy ring method
293.98 K | 32.58 | –
294.03 K | – | 32.64
298.11 K | – | 32.37
298.13 K | 32.37 | –
303.23 K | 32.17 | –
303.24 K | – | 32.19
308.28 K | 31.99 | –
308.32 K | – | 32.01
313.29 K | 31.8 | –
313.3 K | – | 31.86
318.29 K | – | 31.66
318.3 K | 31.64 | –
323.49 K | – | 31.42
323.5 K | 31.45 | –
328.04 K | 31.35 | –
328.12 K | – | 31.25
333.26 K | 31.09 | –
333.32 K | – | 30.89
337.85 K | 30.92 | –
337.88 K | – | 30.81
342.94 K | 30.72 | –
343.09 K | – | 30.5
347.58 K | 30.55 | –
347.59 K | – | 30.38
355.44 K | 30.28 | 30.06

CCCCn1cc[n+](C)c1.O=S(=O)([O-])C(F)(F)F [1-butyl-3-methylimidazolium trifluoromethanesulfonate]
surface tension liquid-gas [mN/m]
Conditions | Wilhelmy plate method | du Nouy method
292.18 K | 35.39 | –
292.24 K | – | 35.4
293.4 K | 35.21 | –
293.45 K | – | 35.17
298.06 K | 35.18 | –
298.12 K | – | 35.2
298.22 K | 35.09 | –
298.27 K | – | 35.1
303.03 K | 35.05 | –
303.09 K | – | 35.09
303.18 K | 34.87 | –
303.2 K | – | 34.98
308.01 K | 34.71 | –
308.06 K | 34.83 | –
308.08 K | – | 34.85
313.26 K | 34.65 | –
313.31 K | – | 34.63
313.58 K | – | 34.59
313.59 K | 34.54 | –
318.1 K | – | 34.44
318.13 K | 34.53 | –
318.51 K | 34.35 | –
318.68 K | – | 34.36
322.87 K | 34.34 | –
322.93 K | 34.18 | –
322.99 K | – | 34.22
327.64 K | 34.19 | 34.08
328.05 K | 34.03 | –
328.09 K | – | 33.8
332.66 K | 33.85 | –
332.74 K | – | 33.82
333.21 K | 34.01 | –
333.25 K | – | 33.89
337.68 K | 33.81 | –
337.83 K | 33.74 | –
337.84 K | – | 33.44
337.92 K | – | 33.73
342.72 K | 33.61 | –
343.12 K | – | 33.47
343.53 K | 33.47 | –
343.61 K | – | 33.41
347.73 K | – | 33.36
347.79 K | 33.54 | –
348.54 K | 33.28 | –
348.64 K | – | 32.9
352.45 K | 33.27 | –
352.7 K | – | 33.08
355.89 K | 33 | –
356 K | – | 32.82

CCn1cc[n+](C)c1.F[B-](F)(F)F [1-ethyl-3-methylimidazolium tetrafluoroborate]
surface tension liquid-gas [mN/m]
Conditions | Wilhelmy plate method | du Nouy ring method
288.05 K | – | 54.61
288.06 K | 54.61 | –
292.92 K | 54.28 | –
292.93 K | – | 54.55
298.1 K | 53.97 | –
298.12 K | – | 54.01
303.12 K | 53.65 | –
303.13 K | – | 53.96
308.27 K | 53.34 | 53.77
313.33 K | 52.98 | –
313.43 K | – | 53.05
318.3 K | 52.7 | –
318.35 K | – | 52.86
323.5 K | 52.39 | –
323.53 K | – | 52.54
328.4 K | 52.05 | –
328.54 K | – | 52.18
333.32 K | 51.74 | –
333.48 K | – | 51.87
338.38 K | – | 51.48
338.39 K | 51.4 | –
343.18 K | 51.11 | –
343.32 K | – | 51.11
348.7 K | 50.76 | –
348.78 K | – | 50.74
355.91 K | – | 50.26
355.99 K | 50.27 | –

CCn1cc[n+](C)c1.O=S(=O)([O-])C(F)(F)F [1-ethyl-3-methylimidazolium trifluoromethanesulfonate]
Conditions | surface tension liquid-gas [mN/m]
268.29 K, Wilhelmy plate method | 41.39
268.36 K, du Nouy ring method | 41.4
272.08 K, Wilhelmy plate method | 41.28
272.13 K, du Nouy ring method | 41.3
276.54 K, Wilhelmy plate method | 41.1
276.65 K, du Nouy ring method | 41.16
281 K, Wilhelmy plate method | 40.96
281.05 K, du Nouy ring method | 41.1
287.58 K, du Nouy ring method | 40.79
287.63 K, Wilhelmy plate method | 40.69
293 K, du Nouy ring method | 40.74
293.01 K, Wilhelmy plate method | 40.52
298.01 K, Wilhelmy plate method | 40.43
298.04 K, du Nouy ring method | 40.39
303.18 K, du Nouy ring method | 40.18
303.2 K, Wilhelmy plate method | 40.24
308.2 K, Wilhelmy plate method | 40.07
308.31 K, du Nouy ring method | 40.01
313.27 K, Wilhelmy plate method | 39.93
313.31 K, du Nouy ring method | 39.75
318.36 K, Wilhelmy plate method | 39.68
318.39 K, du Nouy ring method | 39.83
323.33 K, Wilhelmy plate method | 39.5
323.38 K, du Nouy ring method | 39.38
328.2 K, du Nouy ring method | 39.44
333.07 K, Wilhelmy plate method | 39.16
333.12 K, du Nouy ring method | 39.24
338.1 K, Wilhelmy plate method | 39.03
338.15 K, du Nouy ring method | 39.02
343.14 K, Wilhelmy plate method | 38.85
343.21 K, du Nouy ring method | 38.85
348.38 K, Wilhelmy plate method | 38.65
348.53 K, du Nouy ring method | 38.62
356.09 K, Wilhelmy plate method | 38.37
356.28 K, du Nouy ring method | 38.31

CCCCCCn1cc[n+](C)c1.F[B-](F)(F)F [1-hexyl-3-methylimidazolium tetrafluoroborate]
surface tension liquid-gas [mN/m]
Conditions | Wilhelmy plate method | du Nouy ring method
268.58 K | 39.81 | 39.79
273.34 K | 39.52 | 39.54
277.72 K | 39.29 | –
277.76 K | – | 39.32
282.51 K | 39.04 | –
282.71 K | – | 39.21
288.13 K | 38.71 | 38.75
292.87 K | 38.47 | –
292.93 K | – | 38.49
298.07 K | 38.2 | 38.21
303.15 K | 37.88 | –
303.19 K | – | 37.85
308.22 K | – | 37.66
308.23 K | 37.64 | –
313.35 K | 37.32 | –
313.48 K | – | 37.33
318.39 K | – | 37.08
318.48 K | 37.08 | –
323.32 K | – | 36.83
323.34 K | 36.81 | –
328.17 K | 36.53 | –
328.2 K | – | 36.54
333.22 K | 36.25 | –
333.24 K | – | 36.21
337.92 K | 36.01 | –
337.97 K | – | 36
343.79 K | 35.68 | 35.7
348.5 K | 35.44 | –
348.54 K | – | 35.39
356.17 K | 34.99 | –
356.18 K | – | 35
